Assay results as given in paper PMC9698340, “Discovery and SAR Study of Quinoxaline–Arylfuran Derivatives as a New Class of Antitumor Agents” (Pharmaceutics, 2022).

Tests used:
[1] = test system: STAT3 phosphorylation (Y705) in HeLa cells; experiment: Western blot of STAT3 Y705 phosphorylation; assay type: cell-based, human; conditions: 12 h
Description: HeLa cells were seeded in a 6-well plate overnight and treated with QW12 for 24 h. The cells were then harvested and washed with cold PBS and lysed with RIPA buffer supplemented with a protease and phosphatase inhibitor cocktail. Protein concentration was measured using a BCA protein assay kit (Boster Biological Technology Co., Ltd., Wuhan, China). Proteins were separated by 10% SDS-PAGE gel and transferred onto polyvinylidene difluoride (PVDF) membranes (Millipore Co., Billerica, MA, USA). After blocking with 5% mild in PBST for 1 h at room temperature, membranes were incubated with specific primary antibodies against STAT3 (#ET1605-45), Bcl-2 (#ET1603-11), Bax (#ET1603-34), or GAPDH (#HA721136) overnight at 4 °C. The above antibodies were purchased from HUABIO, China. Phospho-STAT3 (Tyr 705) (#9145S) and anti-rabbit IgG, HRP-linked antibody (#7074S) were purchased from Cell Signaling Technology, Inc. America. […]
The activation of STAT3 is tightly regulated during various physiological processes, and the aberrant and persistent activation of STAT3 has been found in various types of cancer. […] Western blot analysis determined whether QW12 could also regulate the STAT3 signaling pathway in HeLa cells. HeLa cells were treated with QW12 for 12 h, and total cell lysates were prepared; Y705-phosphorylated STAT3 proteins were detected using a specific antibody.

[2] = test system: HeLa cells; experiment: Colony formation (plate-cloning) assay; assay type: cell-based, human; conditions: different concentrations, 24 h treatment
Description: HeLa cells were digested and seeded directly in 6-well plates (1 × 10^3 cells/well) for the colony-formation assay and cultured in the presence of 10% FBS and 1% penicillin/streptomycin at 37 °C with 5% CO2 for 12 h in confluent cell monolayers. The cells were then treated with QW12 at the indicated concentrations for 24 h. Two weeks later, the medium was removed, and the plates were washed with phosphate-buffered saline (PBS) three times. Cells were fixed with anhydrous ethanol for 30 min and then stained with Giemsa dye solution (Solarbio) for 30 min. The plates were dried with a blower to ensure high-quality images were obtained. Colonies were defined as >50 cells/colony.

[3] = test system: phosphorylated AKT (T308) in HeLa cells; experiment: Western blot of AKT (T308) phosphorylation; assay type: cell-based, human; conditions: total AKT not affected, reversed by NAC
[4] = test system: HeLa cells; experiment: Cell cycle analysis, PI flow cytometry; assay type: cell-based, human; conditions: 24 h
Description: For cell cycle analysis, cells were collected after treatment, washed twice with cold PBS, fixed in 70% ethanol overnight, and stained with PI ([…], Sigma, Shanghai, China), plus 0.2 mg/mL of DNase-free RNase A (Qiagen) for 1 h at 4 °C.

[5] = test system: PC3 cells; experiment: CCK-8 antiproliferation assay, PC3; assay type: cell-based; conditions: Homo sapiens, PC-3, 48 h
Description: Human lung carcinoma cell lines A549, human cervical cancer cell lines HeLa, human prostate cancer cell lines PC3, human colorectal carcinoma cell lines HCT116, and human liver cells L02 were purchased from the Chinese Academy of Sciences Shanghai Cell Bank (Shanghai, China). HeLa, A549, PC3, HCT116, and L02 cells were cultured in DMEM Dulbecco’s Modified Eagle Medium (DMEM; Gibco Inc., Gaithersburg, MD, USA). All cultures were provided with 10% fetal bovine serum (FBS; YHSM, Beijing, China), 100 IU/mL penicillin, and 100 μg/mL streptomycin, and cells were incubated at 37 °C in an atmosphere of 5% CO2.
Cell viability was determined using a CCK-8 kit (Apexbio, Houston, TX, USA). […] Subsequently, absorbance was assessed at 450 nm. Three duplicates were set in each group.
All synthesized quinoxalines compounds were tested for in vitro cytotoxicity against four cancer cell lines (HeLa, PC3, A549, and HCT116). The inhibitory effects of these compounds were evaluated using the CCK-8 assay after treatment with 20 μM of each compound. […] The species of phenyl substituents have a significant effect on the activity. […] By comparison, hydrophobic substitution at the phenyl ring gave derivatives with relatively low potency (QW7–8). In addition, large substituents on the phenyl ring exerted an unfavorable influence on the potency of the compounds (QW8 and QW16).

[6] = test system: HeLa cells; experiment: Intracellular ROS, DCFH-DA flow cytometry; assay type: cell-based, human; conditions: 10 and 40 μM, 6 h
Description: Intracellular reactive oxygen species (ROS) were measured by 2,7-dichlorofluorescein diacetate (DCFH-DA) staining. HeLa cells were treated with QW12 at 10 μM and 40 μM for 6 h. After indicated treatment, cells were harvested and washed with PBS. Cells were incubated with 10 μM DCFH-DA at 37 °C for 30 min. Cells were washed twice, resuspended with PBS, and subjected to flow cytometry.

[7] = test system: HeLa cells; experiment: Hoechst-33342 staining; assay type: cell-based, human; conditions: 24 h, vs control
Description: HeLa cells (4 × 10^5 cells) were incubated in a 6-well plate for 12 h. The cells were then treated with QW12 at the indicated concentrations for 24 h. The cells were washed twice with PBS. The cells were then incubated with Hoechst-33342 (10 μg/mL) for 5 min at room temperature in darkness. After incubation, stained cells were observed under an inverted phase contrast microscope (OLYMPUS IX73, Tokyo, Japan).

## COc1cc(-c2ccc(/C=N/NC(=O)c3ccc(O)cc3)o2)c(OC)cc1-c1ccc2nccnc2c1 [QW12, (E)-N’-((5-(2,5-dimethoxy-4-(quinoxalin-6-yl)phenyl)furan-2-yl)methylene)-4-hydroxybenzohydrazide]
[1]
  effect on STAT3 Tyr705 phosphorylation: inhibited Tyr705 phosphorylation in a dose-dependent manner
  effect on total STAT3 level: also decreased
[2]
  effect on proliferation in plate-cloning assay: proliferated at a significantly lower rate than the control
[3]
  effect on phosphorylated AKT levels (T308): significantly decreased
[4]; 10 μM
  HeLa cell population in the S phase: 23.19%
[4]; 40 μM
  HeLa cell population in the S phase: 51.88%
[4]; 10 and 40 μM
  percentage of cells in phases G0/G1 and G2/M: decreased significantly
[5]; 20 μM, CCK-8, mean ± SD, read-out: Inhibition Rate (%) at 20 μM, PC3
  inhibition at 20 µM: 52.55 ± 0.47%
[5]; CCK-8, read-out: IC50 ± SD, PC3
  IC50: 12.7 ± 0.57 µM
[6]
  effect on ROS accumulation: stimulates ROS accumulation in a dose-dependent manner
[7]
  nuclear morphology (Hoechst staining): significant apoptotic morphological characteristics were observed
